# Results from patent US12023306B2, “Compositions comprising a cannabinoid and spilanthol” (priority 2019, dated 2024).
# Assays:
# [1] = system: Dextran Sodium Sulphate (DSS) induced colitis; assay: DSS induced colitis in mice, changes in body weight; format: in vivo, C57BL/6 mice; settings: CBD 50 mg/kg, Spilanthol 10 mg/kg, gavage daily for 8 days; for prevention of the weight loss effect (improvement in outcome vs vehicle): day 9; for average loss of baseline body weight: measured on day 9, vehicle 14.6%
# Protocol: (§1) Colitis was induced in 10 weeks old female C57BL/6 mice (Harlan laboratories, Israel) by feeding them for 8 days with 1.5% (w/vol) DSS in the drinking water (Peer et al. Science, 319: 627-630, 2008; Dearling et al. IBD 2010; Dearling et al. IBD 2016), Kedmi et al. Nature Nanotechnology, 2018.
# (§2) Mice were divided into 4 study groups (10 mice in each group): 1. Vehicle treatment group; 2. CBD 50 mg/kg treatment group; 3. Spilanthol 10 mg/kg treatment group; and 4. CBD 50 mg/kg+Spilanthol 10 mg/kg combination treatment group (herein “test combination group”). Treatment was given via gavage daily for 8 days. An additional group of 10 healthy mice served as a […] control arm. Body weight was monitored every other day. At the end of day 9 the animals were sacrificed and colon TNFα levels as well as the total length of the length of colon from the cecum to anus were assayed.
# (§3) The following readouts were measured in the study as indicators for assessing the amelioration and the therapeutic efficacy of the different treatments: 1. Changes in body weight, 2. Colon's TNFα levels as measured by ELISA kits (R&D Systems, USA), 3. Total length of colon from cecum to anus, as measured by a blinded veterinary doctor.
# TNFα = assay: DSS induced colitis in mice, colon TNFα levels by ELISA; format: in vivo, C57BL/6 mice; settings: for average colon TNFα level: CBD 50 mg/kg, Spilanthol 10 mg/kg, gavage daily 8 days, day 9, healthy 486, vehicle 1,116 pg/ml; for reduction in the TNFα increase effect / reduction of colon TNFα level comparing to vehicle / increase of colon TNFα level from baseline (healthy mice): same doses; for reduction in the TNFα increase effect / reduction of colon TNFα level comparing to vehicle: day 9; for increase of colon TNFα level from baseline (healthy mice): vehicle 130% increase
# Protocol: as §1, §2, §3
# [2] = system: Dextran Sodium Sulphate (DSS) induced colitis; assay: DSS induced colitis in mice, total length of colon from cecum to anus; format: in vivo, C57BL/6 mice; settings: for average colon length: CBD 50 mg/kg, Spilanthol 10 mg/kg, gavage daily 8 days, day 9, healthy 7.66, vehicle 4.9 cm; for decrease of colon length from baseline (healthy mice): vehicle 36% decrease
# Protocol: as §1, §2, §3
# [3] = system: alanine aminotransferase (ALT); assay: MCD diet induced NASH in mice, ALT activity in serum; format: in vivo, FVB/NJ mice; settings: CBD 50 mg/kg, Spilanthol 10 mg/kg, gavage daily for 21 days, MCD elevation 515 SFU/ml
# From the text: (§4) MCD diet in mice is considered a common gold standard model for the development of NASH. In this model, the absence of methionine leads to hepatic injury, inflammation, and fibrosis, and the deficiency of choline leads to macrovesicular steatosis. The MCD diet mouse model has been used in several studies to induce NASH with or without fibrosis.
# NASH was induced in 12 weeks old Male FVB/NJ mice fed with the MCD diet for 21 days. Mice were divided into 5 study groups (12 mice in each group): • 1. Healthy animal group—No induction of NASH by MCD diet. • 2. MCD diet group—with no treatment by either CBD or Spilanthol. • 3. CBD alone group—MCD diet+daily CBD 50 mg/kg treatment. • 4. Spilanthol alone group—MCD diet+daily Spilanthol 10 mg/kg treatment. • 5. […]
# (§5) Treatment was given via gavage daily for 21 days. […] Body weight was monitored every other day. At the end of day 21 the animals were sacrificed, and study readouts as described below were measured.
# (§6) The following readouts were measured in the study as indicators for the therapeutic efficacy of the different treatments: • 1. […] Study Readouts
# 1. Liver enzyme activity levels in serum: The average level of alanine aminotransferase (ALT) activity in the serum of the mice in the different treatment groups was measured using a biochemical autoanalyzer following 21 days of the. […]
# [4] = system: aspartate aminotransferase (AST); assay: MCD diet induced NASH in mice, AST activity in serum; format: in vivo, FVB/NJ mice; settings: CBD 50 mg/kg, Spilanthol 10 mg/kg, gavage daily for 21 days
# From the text: as §4
# (§7) NASH was induced in 12 weeks old Male FVB/NJ mice fed with the MCD diet for 21 days. Mice were divided into 5 study groups (12 mice in each group): • 1. Healthy animal group—No induction of NASH by MCD diet. • 2. MCD diet group—with no treatment by either CBD or Spilanthol. • 3. CBD alone group—MCD diet+daily CBD 50 mg/kg treatment. • 4. Spilanthol alone group—MCD diet+daily Spilanthol 10 mg/kg treatment. • 5. Combination treatment group—MCD diet+daily CBD 50 mg/kg and Spilanthol 10 mg/kg treatment.
# Treatment was given via gavage daily for 21 days. That is, the MCD diet and treatment were initiated simultaneously, so as to examine the treatments' ability both to prevent and treat NASH. Body weight was monitored every other day. At the end of day 21 the animals were sacrificed, and study readouts as described below were measured.
# The following readouts were measured in the study as indicators for the therapeutic efficacy of the different treatments: • 1. 1. Liver enzymes activity levels in the serum (ALT and AST). • 2. 2. […] Study Readouts […]
# IL-6 = assay: MCD diet induced NASH in mice, IL-6 serum levels by ELISA; format: in vivo, FVB/NJ mice; settings: same doses, 21 days, healthy 88, untreated dieted 2,912 pg/ml
# From the text: as §4, §7, §5, §6
# 2. […] Pro-inflammatory cytokine IL-6 levels were also measured in the serum of the mice at the end of the 21 days of the study using a commercial ELISA kit (R&D systems, USA). […]
# [5] = system: NASH induced by a methionine and choline deficient (MCD) diet; assay: MCD diet induced NASH in mice, liver weight; format: in vivo, FVB/NJ mice; settings: same doses, 21 days
# From the text: as §4, §7, §5, §6
# 3. […] The total liver weight was also measured for all mice following the 21 days of the study. […] The average liver weight as measured in the not dieted mice group (healthy) was 1.22 grams. […]
# ICR mice = settings: acute toxicity; cited from earlier work
# [6] = system: human HEK293 kidney cells; settings: cited from earlier work
# [7] = system: nitric oxide (NO) production; settings: RAW 264.7 murine macrophages; cited from earlier work
# Ames test = settings: cited from earlier work
# [8] = system: RAW 264.7 murine macrophages; settings: concentrations up to 40 μg/ml; cited from earlier work
Compound,prevention of the weight loss effect (improvement in outcome vs vehicle) [1] [%],average loss of baseline body weight [1] [%],average colon TNFα level (TNFα) [pg/mL],reduction in the TNFα increase effect (TNFα) [%],reduction of colon TNFα level comparing to vehicle (TNFα) [pg/mL],increase of colon TNFα level from baseline (healthy mice) (TNFα) [%],average colon length [2] [cm],decrease of colon length from baseline (healthy mice) ([2]; same doses) [%],"improvement in outcome (colon shortening effect) ([2]; same doses, vs vehicle) [%]","reduction of the colon shortening effect ([2]; same doses, vs vehicle) [cm]",reduction of the elevated ALT serum activity levels [3],reduction in AST enzyme activity levels in serum [4],reduction of the elevated IL-6 serum levels (IL-6),reduction in liver weight loss [5],median lethal dose (LD50) (ICR mice) [mg/kg],"cytotoxic effect, mean inhibitory concentration (IC50) [6] [µg/mL]",effect on nitric oxide (NO) production [7],mutagenic effects (Ames test; Ames test),antimutagenic effects (Ames test; at 25 and 50 μg/ml),cytotoxic effects [8]
"C=C(C)C1CCC(C)=CC1c1c(O)cc(CCCCC)cc1O (stereo not drawn) [CBD, 2-[3-methyl-6-(1-methylethenyl)-2-cyclohexen-1-yl]-5-pentyl-1,3-benzenediol]",44,8.2,928,30,188,91,5.31,30.7,14.9,0.41,16.5%,"neither CBD alone, nor Spilanthol alone has any significant effect",13.5%,38.3%,,,,,,
"C/C=C/C=C\CC/C=C/C(=O)NCC(C)C [Spilanthol, (2E,6Z,8E)-N-isobutyl-2,6,8-decatrienamide]",0,14.6,980,21.5,136,101,4.9,36,0,,no effect,"neither CBD alone, nor Spilanthol alone has any significant effect",ineffective,no effect,113,260,stimulatory effect,No mutagenic effects,antimutagenic effects of affinin were observed,No cytotoxic effects
